Assay results as given in ChEMBL document CHEMBL4483862, “Open-source discovery of chemical leads for next-generation chemoprotective antimalarials” (2018).

Tested on: Plasmodium berghei
Assay: Luciferase/luciferin-expressing antifolate-resistant parasites were used to infect a culture of HepG2 cells that were pre-incubated with compounds. Infected hepatocytes emit light due to the luciferase reaction. Assay results are presented as the percent inhibition of light emission compared to control. […]
Assay type: functional
Conditions: sporozoite; for IC90: read-out: LUCIFERASE INFECTION ASSAY - IC90
[1] = read-out: LUCIFERASE INFECTION ASSAY - IC50

| SMILES | IC90 [µM] | IC50 [1] [µM] | also measured |
| --- | --- | --- | --- |
| Cc1c(C)n(CCCO)c2ncn3nc(COc4ccccc4)nc3c12 | 0.36 |  | IC50 (FFLUC_HILL_SLOPE 0.782, FFLUC_R_SQUARED 0.957, PBLUC_HILL_SLOPE 0.808, PBLUC_R_SQUARED 0.882, read-out: LUCIFERASE INFECTION ASSAY - IC50): 0.0238 µM |
| COCCNc1nc(-c2c(-c3ccccc3)[nH]c3ccccc23)cs1 | > 10 | > 10 |  |
| CC(=O)Nc1ccc(Nc2nc3cc(S(=O)(=O)Nc4cccc(Cl)c4)ccc3o2)cc1 | 9.97 |  | IC50 (HEPG2TOX_HILL_SLOPE 0.957, HEPG2TOX_R_SQUARED 0.862, PBLUC_HILL_SLOPE 2.24, PBLUC_R_SQUARED 0.74, read-out: LUCIFERASE INFECTION ASSAY - IC50): 3.74 µM |
| CC(C)CCCC(C)NC(=O)CSCc1cccc(C(=O)O)c1 (stereo not given) | > 10 | > 10 |  |
| O=C(CSc1nnc(-c2ccccc2)[nH]1)N1c2ccccc2OCC1c1ccccc1 (stereo not given) | > 10 |  | IC50 (PBLUC_HILL_SLOPE 11.0, 1.31, PBLUC_R_SQUARED 0.138, 0.609, read-out: LUCIFERASE INFECTION ASSAY - IC50): 6.33 µM |
| N#CC(Cc1ccccc1)Sc1nnc(-c2ccccc2)n1-c1ccccc1 (stereo not given) | > 10 |  | IC50 (FFLUC_HILL_SLOPE 0.339, FFLUC_R_SQUARED 0.0197, read-out: LUCIFERASE INFECTION ASSAY - IC50): > 10 µM |
| CCCC(C)C(=O)Nc1nc2ccc(C)cn2c1C(=O)NC1CCCCC1 (stereo not given) | > 8.91 |  | IC50 (FFLUC_HILL_SLOPE 3.24, FFLUC_R_SQUARED 0.792, read-out: LUCIFERASE INFECTION ASSAY - IC50): > 8.91 µM |
| CCN(c1ccccc1)S(=O)(=O)c1ccc(C(=O)NC2CCCCC2)cc1 | > 10 |  | IC50 (HEPG2TOX_HILL_SLOPE 0.154, HEPG2TOX_R_SQUARED 0.656, read-out: LUCIFERASE INFECTION ASSAY - IC50): > 10 µM |
| CN(c1ccccc1)S(=O)(=O)c1cc(C(=O)c2nnc(-c3ccc(Cl)cc3)o2)ccc1Cl | > 10 | > 10 |  |
| Oc1c(-c2cc(C(F)(F)F)[nH]n2)ccc2ccccc12 | 4.29 |  | IC50 (HEPG2TOX_HILL_SLOPE 2.58, HEPG2TOX_R_SQUARED 0.339, PBLUC_HILL_SLOPE 10.9, PBLUC_R_SQUARED 0.613, read-out: LUCIFERASE INFECTION ASSAY - IC50): 3.51 µM |
| CC(=O)Nc1ncc2c(Cl)cccc2n1 | > 14.9 |  | IC50 (HEPG2TOX_HILL_SLOPE 2.36, HEPG2TOX_R_SQUARED 0.885, PBLUC_HILL_SLOPE 2.93, PBLUC_R_SQUARED 0.162, read-out: LUCIFERASE INFECTION ASSAY - IC50): 7.84 µM |
| CCOC(=O)N1CCC(N/C=C(\C#N)S(=O)(=O)c2ccc(Cl)cc2)CC1 | 3.29 |  | IC50 (PBLUC_HILL_SLOPE 8.69, PBLUC_R_SQUARED 0.709, read-out: LUCIFERASE INFECTION ASSAY - IC50): 2.55 µM |
| O=C(NC1CC1)c1ccc(-c2cnc3cnc(-c4ccc(CNc5ccccc5)cc4)cn23)cc1 | > 7.18 |  | IC50 (PBLUC_HILL_SLOPE 4.2, PBLUC_R_SQUARED 0.624, read-out: LUCIFERASE INFECTION ASSAY - IC50): 4.59 µM |
| O=C(CNC(=O)c1ccc(N2CCCC2=O)cc1)NCCCn1cccn1 | > 10 | > 10 |  |
| Cc1cccc(C(=O)Nc2ccccc2C(=O)OCC(=O)c2c[nH]c3ccccc23)c1 | > 10 | > 10 |  |
| Cc1csc(NC(=O)Nc2ccc(C(F)(F)F)cc2)c1 | > 11 | > 11 |  |
| Cc1ccc(C(=O)c2c(NC(=O)CSc3nc4ccccc4n3CC(C)C)sc3c2CCCC3)cc1 | > 10 |  | IC50 (FFLUC_HILL_SLOPE 15.8, FFLUC_R_SQUARED 0.569, HEPG2TOX_HILL_SLOPE 0.459, HEPG2TOX_R_SQUARED 0.518, PBLUC_HILL_SLOPE 11.3, PBLUC_R_SQUARED 0.271, read-out: LUCIFERASE INFECTION ASSAY - IC50): > 10 µM |
| COc1ccccc1C1=NOC(=C2Sc3ccccc3C2=O)N1 | 4.54 |  | IC50 (PBLUC_HILL_SLOPE 8.91, PBLUC_R_SQUARED 0.334, read-out: LUCIFERASE INFECTION ASSAY - IC50): 3.55 µM |
| O=c1c2ccccc2nc(SCc2coc(-c3cccs3)n2)n1-c1ccc(Cl)cc1 | > 10 | > 10 |  |
| CNC(=O)c1cccc(NC(=O)c2cc(-c3ccco3)nc3c2cnn3C(C)C)c1 | > 10 | > 10 |  |
| CC(=O)Nc1ccc(/C=C2\S/C(=N\c3cccc4ccccc34)N(Cc3ccccc3F)C2=O)cc1 | > 10 | 6.52 |  |
| CC(C)CNC(=O)CN1CCN(c2nc(-c3cccs3)nc3sc4c(c23)CCC4)CC1 | 3.94 | 3.4 |  |
| O=C(Nc1cc(C(F)(F)F)cc(C(F)(F)F)c1)Nc1cnn(-c2ccccc2)c1C(F)(F)F | 2.67 |  | IC50 (HEPG2TOX_HILL_SLOPE 8.4, HEPG2TOX_R_SQUARED 0.935, PBLUC_HILL_SLOPE 10.9, PBLUC_R_SQUARED 0.166, read-out: LUCIFERASE INFECTION ASSAY - IC50): 2.19 µM |

| SMILES | IC90 [µM] | IC50 [1] [µM] | also measured |
| --- | --- | --- | --- |
| COc1ccc2c(c1)C(=O)/C(=C\c1ccc(OCc3nccn3C)cc1)CO2 | > 10 |  | IC50 (PBLUC_HILL_SLOPE 10.1, PBLUC_R_SQUARED 0.104, read-out: LUCIFERASE INFECTION ASSAY - IC50): 8.44 µM |
| Nc1ncc(-c2ccc(F)c(Cl)c2)cc1-c1cccc(O)c1 | > 10.5 | > 10.5 |  |
| N#Cc1cc([N+](=O)[O-])ccc1Sc1nnc(C2COc3ccccc3O2)n1-c1ccccc1 (stereo not given) | > 10 | > 10 |  |
| OC(CN1CC=C(c2c[nH]c3ccccc23)CC1)c1ccccc1 (stereo not given) | > 10 |  | IC50 (HEPG2TOX_HILL_SLOPE 8.59, HEPG2TOX_R_SQUARED 0.892, PBLUC_HILL_SLOPE 2.5, PBLUC_R_SQUARED 0.397, read-out: LUCIFERASE INFECTION ASSAY - IC50): 5.3 µM |
| Cc1cc(-c2nc(C)sc2CC(=O)O)c(C)s1 | > 10 | > 10 |  |
| Cc1ccc(-c2csc3[nH]c(=S)n(Cc4ccccc4)c(=O)c23)cc1 | > 10 |  | IC50 (HEPG2TOX_HILL_SLOPE 0.131, HEPG2TOX_R_SQUARED 0.154, PBLUC_HILL_SLOPE 0.317, PBLUC_R_SQUARED 0.176, read-out: LUCIFERASE INFECTION ASSAY - IC50): 7.53 µM |
| Cc1ccccc1CNC(=O)c1ccc(NC(=O)c2ccco2)s1 | > 10 |  | IC50 (HEPG2TOX_HILL_SLOPE 9.39, HEPG2TOX_R_SQUARED 0.787, PBLUC_HILL_SLOPE 2.67, PBLUC_R_SQUARED 0.485, read-out: LUCIFERASE INFECTION ASSAY - IC50): 5.78 µM |
| Cc1ccc(N2C(=O)/C(=C\Nc3cc(Cl)ccc3[N+](=O)[O-])c3ccccc3C2=O)c(C)c1 | > 10 |  | IC50 (FFLUC_HILL_SLOPE 12.2, FFLUC_R_SQUARED 0.8, read-out: LUCIFERASE INFECTION ASSAY - IC50): > 10 µM |
| C=C(C)c1ccccc(=O)c1O | > 20.3 | > 20.3 |  |
| O=C(c1c[nH]c2ccccc12)C(c1ccccc1)N1CCN(CC(=O)N2CCCC2)CC1 (stereo not given) | > 10 |  | IC50 (PBLUC_HILL_SLOPE 1.28, PBLUC_R_SQUARED 0.65, read-out: LUCIFERASE INFECTION ASSAY - IC50): 3.5 µM |
| CCOC(=O)c1c(NC(=O)CNc2ccccc2CN(C)C2CCCCC2)sc(CC)c1C | > 10 |  | IC50 (PBLUC_HILL_SLOPE 1.16, PBLUC_R_SQUARED 0.382, read-out: LUCIFERASE INFECTION ASSAY - IC50): 3.12 µM |
| Cc1cc(C(=O)Nc2nc3ccccc3s2)c(C)n1C(C)C | 0.946 | 0.121 |  |
| O=C1CCc2cc(-c3csc(NC(=O)c4ccc(-n5cnc6ccccc65)cc4)n3)ccc2N1 | 3.68 |  | IC50 (PBLUC_HILL_SLOPE 2.11, 11.5, PBLUC_R_SQUARED 0.409, 0.367, read-out: LUCIFERASE INFECTION ASSAY - IC50): 3.63 µM |
| CC(=O)c1ccc(NC(=O)Nc2ccc3nc(-c4cccc(F)c4)nn3c2)cc1 | > 10 | 5.52 |  |
| O=C(Nc1csc([N+](=O)[O-])c1)Nc1ccccc1Cl | > 11.1 |  | IC50 (PBLUC_HILL_SLOPE 16.6, PBLUC_R_SQUARED 0.0194, read-out: LUCIFERASE INFECTION ASSAY - IC50): 11 µM |
| Cc1cccc(C(=O)Nc2nc3ccccn3c2C(=O)NC2CCCCC2)c1 | 2.91 |  | IC50 (HEPG2TOX_HILL_SLOPE 2.01, HEPG2TOX_R_SQUARED 0.621, PBLUC_HILL_SLOPE 5.25, PBLUC_R_SQUARED 0.58, read-out: LUCIFERASE INFECTION ASSAY - IC50): 1.91 µM |
| COc1ccc(NC(=O)Nc2ccc3nc(-c4ccccc4OC)nn3c2)cc1OC | > 10 | > 10 |  |
| CC(Nc1ccnc2cc(Cl)ccc12)c1ccccc1Cl (stereo not given) | 3.6 |  | IC50 (PBLUC_HILL_SLOPE 22.7, PBLUC_R_SQUARED 0.0753, read-out: LUCIFERASE INFECTION ASSAY - IC50): 3.27 µM |
| OC(c1cn2cc(-c3ccccc3)nc2s1)(C(F)(F)F)C(F)(F)F | 1.73 |  | IC50 (PBLUC_HILL_SLOPE 1.37, PBLUC_R_SQUARED 0.781, read-out: LUCIFERASE INFECTION ASSAY - IC50): 0.348 µM |
| CC1CC(C)CN(c2nc3c(c(=O)[nH]c(=O)n3C)n2Cc2ccccc2F)C1 (stereo not given) | > 8.56 |  | IC50 (PBLUC_HILL_SLOPE 14.3, PBLUC_R_SQUARED 0.575, read-out: LUCIFERASE INFECTION ASSAY - IC50): 8.19 µM |
| O=C(Nc1cccc(CNc2ccnc3cc(Cl)ccc23)c1)C1CC1 | > 10 |  | IC50 (PBLUC_HILL_SLOPE 2.98, PBLUC_R_SQUARED 0.123, read-out: LUCIFERASE INFECTION ASSAY - IC50): 5.8 µM |
| COc1ccc(OC)c(-c2csc(NC(=O)c3c(C)nc(C(C)C)nc3SC)n2)c1 | > 10 |  | IC50 (FFLUC_HILL_SLOPE 4.18, FFLUC_R_SQUARED 0.209, HEPG2TOX_HILL_SLOPE 6.05, HEPG2TOX_R_SQUARED 0.136, PBLUC_HILL_SLOPE 1.9, PBLUC_R_SQUARED 0.115, read-out: LUCIFERASE INFECTION ASSAY - IC50): > 10 µM |
